# Target: T1, SIRT1 (Homo sapiens, UniProt Q96EB6)
# T1 sequence (Q96EB6 1-747): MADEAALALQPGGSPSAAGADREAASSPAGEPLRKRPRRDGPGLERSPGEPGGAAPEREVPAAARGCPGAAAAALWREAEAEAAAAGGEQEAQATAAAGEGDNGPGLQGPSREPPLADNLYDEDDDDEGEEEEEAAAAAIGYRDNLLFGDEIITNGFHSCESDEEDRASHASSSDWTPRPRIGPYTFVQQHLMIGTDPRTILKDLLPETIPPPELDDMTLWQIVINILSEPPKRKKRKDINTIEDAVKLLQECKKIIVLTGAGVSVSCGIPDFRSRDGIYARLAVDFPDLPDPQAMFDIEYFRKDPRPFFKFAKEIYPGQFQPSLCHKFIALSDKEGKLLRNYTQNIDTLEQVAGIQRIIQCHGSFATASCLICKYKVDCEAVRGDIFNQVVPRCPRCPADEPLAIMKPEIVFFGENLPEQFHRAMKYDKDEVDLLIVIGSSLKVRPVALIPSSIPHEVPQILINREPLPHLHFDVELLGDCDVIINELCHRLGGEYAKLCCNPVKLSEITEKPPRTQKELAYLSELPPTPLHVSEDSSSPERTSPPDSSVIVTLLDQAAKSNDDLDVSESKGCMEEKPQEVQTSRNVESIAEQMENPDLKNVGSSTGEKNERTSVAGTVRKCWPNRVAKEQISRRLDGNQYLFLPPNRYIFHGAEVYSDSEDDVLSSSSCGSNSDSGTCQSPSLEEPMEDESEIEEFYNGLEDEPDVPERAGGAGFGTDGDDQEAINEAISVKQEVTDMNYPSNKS
# Assay: Mass spectrometry based SIRT1 deacetylase activation assay (acetylated p53-derived peptide substrate)
# Assay type: biochemical
# Settings: 0.5 μM peptide substrate, 120 μM βNAD+, 10 nM SIRT1, 25 minutes at 25° C.
EC1.5,Fold Act. (percent maximum fold activation),Compound
A (EC1.5<1.0 uM),A (Fold activation >200%),O=C(Nc1nccs1)c1cncc2[nH]c(-c3ccc(Cl)cc3C(F)(F)F)nc12 [Compound 648]
A (EC1.5<1.0 uM),A (Fold activation >200%),O=C(Nc1ccccn1)c1cncc2[nH]c(-c3ccc(Cl)cc3C(F)(F)F)nc12 [Compound 649]
A (EC1.5<1.0 uM),A (Fold activation >200%),O=C(Nc1cccnc1)c1cncc2[nH]c(-c3ccc(Cl)cc3C(F)(F)F)nc12 [Compound 650]
A (EC1.5<1.0 uM),A (Fold activation >200%),O=C(Nc1cccnn1)c1cncc2[nH]c(-c3ccc(Cl)cc3C(F)(F)F)nc12 [Compound 651]
A (EC1.5<1.0 uM),A (Fold activation >200%),Cc1cnc(NC(=O)c2cncc3[nH]c(-c4ccc(Cl)cc4C(F)(F)F)nc23)s1 [Compound 652]
B (EC1.5 1-25 uM),A (Fold activation >200%),O=C(Nc1nccs1)c1cncc2[nH]c(-c3cc(F)ccc3C(F)(F)F)nc12 [Compound 653]
B (EC1.5 1-25 uM),A (Fold activation >200%),O=C(Nc1ccccn1)c1cncc2[nH]c(-c3cc(F)ccc3C(F)(F)F)nc12 [Compound 654]
A (EC1.5<1.0 uM),A (Fold activation >200%),O=C(Nc1cccnc1)c1cncc2[nH]c(-c3cc(F)ccc3C(F)(F)F)nc12 [Compound 655]
A (EC1.5<1.0 uM),A (Fold activation >200%),O=C(Nc1cccnn1)c1cncc2[nH]c(-c3cc(F)ccc3C(F)(F)F)nc12 [Compound 656]
A (EC1.5<1.0 uM),A (Fold activation >200%),Cc1cnc(NC(=O)c2cncc3[nH]c(-c4cc(F)ccc4C(F)(F)F)nc23)s1 [Compound 657]
A (EC1.5<1.0 uM),A (Fold activation >200%),CS(=O)(=O)c1ccc(F)cc1-c1nc2c(C(=O)Nc3ccccn3)cccc2[nH]1 [Compound 658]
B (EC1.5 1-25 uM),A (Fold activation >200%),CS(=O)(=O)c1ccc(F)cc1-c1nc2c(C(=O)Nc3cccnc3)cccc2[nH]1 [Compound 659]
A (EC1.5<1.0 uM),A (Fold activation >200%),O=C(Nc1cccc(OC2CCNC2)c1)c1cccc2[nH]c(-c3ccc(F)cc3C(F)(F)F)nc12 (stereo not shown) [Compound 660]
A (EC1.5<1.0 uM),A (Fold activation >200%),O=C(Nc1cccc(OC2CCNCC2)c1)c1cccc2[nH]c(-c3ccc(F)cc3C(F)(F)F)nc12 [Compound 661]
B (EC1.5 1-25 uM),A (Fold activation >200%),C[C@@H]1CN(c2ccc(C(F)(F)F)c(-c3nc4c(C(=O)Nc5nccs5)cccc4[nH]3)c2)C[C@H](C)O1 [Compound 662]
C (EC1.5 >25 uM),B (Fold Activation <200%),C[C@@H]1CN(c2ccc(C(F)(F)F)c(-c3nc4c(C(=O)Nc5ccccn5)cccc4[nH]3)c2)C[C@H](C)O1 [Compound 663]
C (EC1.5 >25 uM),B (Fold Activation <200%),O=C(Nc1nccs1)c1cccc2[nH]c(-c3cc(N4CCCC4)ccc3C(F)(F)F)nc12 [Compound 664]
A (EC1.5<1.0 uM),A (Fold activation >200%),O=C(Nc1nccs1)c1cccc2[nH]c(-c3cc(N4CC[C@H](F)C4)ccc3C(F)(F)F)nc12 [Compound 665]
B (EC1.5 1-25 uM),B (Fold Activation <200%),O=C(Nc1ccccn1)c1cccc2[nH]c(-c3cc(N4CC[C@H](F)C4)ccc3C(F)(F)F)nc12 [Compound 666]
B (EC1.5 1-25 uM),A (Fold activation >200%),O=C(Nc1nccs1)c1cccc2[nH]c(-c3cc(N4CC[C@@H](F)C4)ccc3C(F)(F)F)nc12 [Compound 667]
A (EC1.5<1.0 uM),B (Fold Activation <200%),O=C(Nc1ccccn1)c1cccc2[nH]c(-c3cc(N4CC[C@@H](F)C4)ccc3C(F)(F)F)nc12 [Compound 668]

EC1.5,Fold Act. (percent maximum fold activation),Compound
C (EC1.5 >25 uM),B (Fold Activation <200%),FC(F)(F)c1cc(Cl)ccc1-c1nc2c(NCc3cccnc3)cccc2[nH]1 [Compound 669]
C (EC1.5 >25 uM),B (Fold Activation <200%),Fc1ccc(C(F)(F)F)c(-c2nc3c(NCc4cccnc4)cccc3[nH]2)c1 [Compound 670]
C (EC1.5 >25 uM),B (Fold Activation <200%),c1ccc(-n2nccc2-c2nc3c(NCc4cccnc4)cccc3[nH]2)cc1 [Compound 671]
A (EC1.5<1.0 uM),A (Fold activation >200%),O=C(Nc1cccc(CN2CCOCC2)n1)c1cccc2[nH]c(-c3ccccc3C(F)(F)F)nc12 [Compound 672]
A (EC1.5<1.0 uM),A (Fold activation >200%),O=C(Nc1ccc(CN2CCOCC2)cn1)c1cccc2[nH]c(-c3ccccc3C(F)(F)F)nc12 [Compound 673]
A (EC1.5<1.0 uM),A (Fold activation >200%),O=C(Nc1ccc(CN2CCOCC2)nc1)c1cccc2[nH]c(-c3ccccc3C(F)(F)F)nc12 [Compound 674]
A (EC1.5<1.0 uM),A (Fold activation >200%),O=C(Nc1cccc(CN2CCOCC2)n1)c1cccc2[nH]c(-c3ccc(Cl)cc3C(F)(F)F)nc12 [Compound 675]
A (EC1.5<1.0 uM),A (Fold activation >200%),O=C(Nc1ccc(CN2CCOCC2)cn1)c1cccc2[nH]c(-c3ccc(Cl)cc3C(F)(F)F)nc12 [Compound 676]
A (EC1.5<1.0 uM),A (Fold activation >200%),O=C(Nc1cccc(CN2CCOCC2)n1)c1cccc2[nH]c(-c3cc(F)ccc3C(F)(F)F)nc12 [Compound 677]
A (EC1.5<1.0 uM),A (Fold activation >200%),O=C(Nc1cccc(OCC(O)CO)c1)c1cccc2[nH]c(-c3ccc(Cl)cc3C(F)(F)F)nc12 (stereo not shown) [Compound 678]
A (EC1.5<1.0 uM),A (Fold activation >200%),O=C(Nc1cccc(OCC(O)CO)c1)c1cccc2[nH]c(-c3ccc(F)cc3C(F)(F)F)nc12 (stereo not shown) [Compound 679]
A (EC1.5<1.0 uM),A (Fold activation >200%),O=C(Nc1cccc(OCC(O)CO)c1)c1cccc2[nH]c(-c3cc(F)ccc3C(F)(F)F)nc12 (stereo not shown) [Compound 680]
A (EC1.5<1.0 uM),A (Fold activation >200%),"O=C(Nc1nc(CN2CCOCC2)cs1)c1cccc2[nH]c(-c3ccc(F)cc3C(F)(F)F)nc12 [Compound 681, 2-(4-fluoro-2-(trifluoromethyl)phenyl)-N-(4-(morpholinomethyl)thiazol-2-yl)-1H-benzo[d]imidazole-4-carboxamide]"
A (EC1.5<1.0 uM),A (Fold activation >200%),O=C(Nc1cccc(CN2CCNCC2)n1)c1cccc2[nH]c(-c3ccccc3C(F)(F)F)nc12 [Compound 682]
A (EC1.5<1.0 uM),A (Fold activation >200%),O=C(Nc1ccc(CN2CCCC2)nc1)c1cccc2[nH]c(-c3ccccc3C(F)(F)F)nc12 [Compound 683]
A (EC1.5<1.0 uM),A (Fold activation >200%),O=C(Nc1ccc(CN2CCOCC2)nc1)c1cccc2[nH]c(-c3ccc(Cl)cc3C(F)(F)F)nc12 [Compound 684]
A (EC1.5<1.0 uM),A (Fold activation >200%),O=C(Nc1ccc(CN2CCCC2)nc1)c1cccc2[nH]c(-c3ccc(Cl)cc3C(F)(F)F)nc12 [Compound 685]
A (EC1.5<1.0 uM),A (Fold activation >200%),"O=C(Nc1ccc(CN2CCOCC2)nc1)c1cccc2[nH]c(-c3cc(F)ccc3C(F)(F)F)nc12 [Compound 686, 2-(5-fluoro-2-(trifluoromethyl)phenyl)-N-(6-(morpholinomethyl)pyridin-3-yl)-1H-benzo[d]imidazole-4-carboxamide]"
A (EC1.5<1.0 uM),A (Fold activation >200%),O=C(Nc1ccc(CN2CCCC2)nc1)c1cccc2[nH]c(-c3cc(F)ccc3C(F)(F)F)nc12 [Compound 687]
C (EC1.5 >25 uM),B (Fold Activation <200%),O=C(Nc1ccccn1)c1cccc2[nH]c(-c3cc(N4CCCC4)ccc3C(F)(F)F)nc12 [Compound 688]
